Source: ChEMBL document CHEMBL5465560, “Selectivity Literature for EUbOPEN Chemogenomic Library” (2024)

Experiments:
[1] = target: Dual specificity protein kinase CLK3 (Homo sapiens, UniProt P49761); assay: Selectivity interaction (KinomeScan (DiscoverX)) EUB0000666a CLK3; conditions: at 10 µM
[2] = target: Ribosomal protein S6 kinase alpha-5 (Homo sapiens) (UniProt O75582); assay: Selectivity interaction (KinomeScan (DiscoverX)) EUB0001079a RPS6KA5; conditions: at 1 µM
[3] = target: Serine/threonine-protein kinase 25 (Homo sapiens) (UniProt O00506); assay: Selectivity interaction (KinomeScan (DiscoverX)) EUB0001079a STK25; conditions: at 1 µM
Serine/threonine-protein kinase 25 (Homo sapiens), sequence (O00506 whole entry, looked up): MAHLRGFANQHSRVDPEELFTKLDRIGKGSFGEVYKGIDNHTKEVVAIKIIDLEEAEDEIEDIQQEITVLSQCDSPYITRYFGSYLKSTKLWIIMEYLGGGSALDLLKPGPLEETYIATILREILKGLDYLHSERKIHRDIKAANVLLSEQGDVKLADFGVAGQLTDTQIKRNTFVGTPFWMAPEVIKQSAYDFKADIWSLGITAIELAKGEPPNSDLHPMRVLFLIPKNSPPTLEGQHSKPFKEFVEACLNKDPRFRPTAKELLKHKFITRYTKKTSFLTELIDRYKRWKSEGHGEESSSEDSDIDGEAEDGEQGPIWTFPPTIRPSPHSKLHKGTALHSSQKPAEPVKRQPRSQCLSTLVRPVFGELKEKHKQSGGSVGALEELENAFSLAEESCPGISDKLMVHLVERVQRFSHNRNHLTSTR

[4] = target: Ribosomal protein S6 kinase alpha-3 (Homo sapiens, UniProt P51812); assay: Selectivity interaction (ActivX KiNativ screen (kinase selectivity in THP-1 cell lysates)) EUB0000639a RPS6KA3; format: subcellular; conditions: lysate, at 0.2 µM
Ribosomal protein S6 kinase alpha-3, sequence (P51812 whole entry): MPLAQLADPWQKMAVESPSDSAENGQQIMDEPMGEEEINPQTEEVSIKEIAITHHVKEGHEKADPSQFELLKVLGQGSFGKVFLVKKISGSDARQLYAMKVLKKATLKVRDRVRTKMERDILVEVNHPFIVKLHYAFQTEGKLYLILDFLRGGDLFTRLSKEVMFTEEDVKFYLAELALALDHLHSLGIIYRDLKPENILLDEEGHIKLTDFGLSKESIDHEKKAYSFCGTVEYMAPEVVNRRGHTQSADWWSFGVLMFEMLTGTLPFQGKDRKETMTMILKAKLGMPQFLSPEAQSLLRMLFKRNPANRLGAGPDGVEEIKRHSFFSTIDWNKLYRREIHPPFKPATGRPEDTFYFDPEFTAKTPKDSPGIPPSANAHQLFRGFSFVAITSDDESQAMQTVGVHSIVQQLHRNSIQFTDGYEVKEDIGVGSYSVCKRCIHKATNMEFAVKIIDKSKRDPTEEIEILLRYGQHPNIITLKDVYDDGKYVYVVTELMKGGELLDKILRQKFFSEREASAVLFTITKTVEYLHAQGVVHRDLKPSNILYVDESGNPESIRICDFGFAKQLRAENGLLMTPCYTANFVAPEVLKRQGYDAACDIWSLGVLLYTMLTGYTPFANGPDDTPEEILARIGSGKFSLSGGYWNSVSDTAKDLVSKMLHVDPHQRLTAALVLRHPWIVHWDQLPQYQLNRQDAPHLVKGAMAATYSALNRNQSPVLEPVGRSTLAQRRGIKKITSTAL

[5] = target: T1, Calcium/calmodulin-dependent protein kinase type IV (Homo sapiens) (UniProt Q16566); assay: Selectivity interaction (Kinase panel (Invitrogen)) EUB0000639a CAMK4; conditions: at 200 nM
T1 sequence (whole entry): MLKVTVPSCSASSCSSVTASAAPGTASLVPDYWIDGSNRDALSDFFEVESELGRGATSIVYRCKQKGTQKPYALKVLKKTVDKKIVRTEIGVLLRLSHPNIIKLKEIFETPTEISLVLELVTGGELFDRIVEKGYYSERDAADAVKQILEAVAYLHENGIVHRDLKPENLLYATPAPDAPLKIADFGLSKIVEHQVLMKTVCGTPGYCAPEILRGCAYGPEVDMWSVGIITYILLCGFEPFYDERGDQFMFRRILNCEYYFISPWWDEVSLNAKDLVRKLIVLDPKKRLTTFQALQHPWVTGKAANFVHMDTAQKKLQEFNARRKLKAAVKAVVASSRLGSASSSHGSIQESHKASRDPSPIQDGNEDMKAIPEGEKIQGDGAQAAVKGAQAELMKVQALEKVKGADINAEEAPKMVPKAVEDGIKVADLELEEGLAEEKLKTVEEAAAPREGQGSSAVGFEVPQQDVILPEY

[6] = target: DNA (cytosine-5)-methyltransferase 3A (Homo sapiens) (UniProt Q9Y6K1); assay: Selectivity interaction (Methyltransferase screen (Scintillation proximity assays)) EUB0000255b DNMT3A
DNA (cytosine-5)-methyltransferase 3A (Homo sapiens), sequence (Q9Y6K1 whole entry, looked up): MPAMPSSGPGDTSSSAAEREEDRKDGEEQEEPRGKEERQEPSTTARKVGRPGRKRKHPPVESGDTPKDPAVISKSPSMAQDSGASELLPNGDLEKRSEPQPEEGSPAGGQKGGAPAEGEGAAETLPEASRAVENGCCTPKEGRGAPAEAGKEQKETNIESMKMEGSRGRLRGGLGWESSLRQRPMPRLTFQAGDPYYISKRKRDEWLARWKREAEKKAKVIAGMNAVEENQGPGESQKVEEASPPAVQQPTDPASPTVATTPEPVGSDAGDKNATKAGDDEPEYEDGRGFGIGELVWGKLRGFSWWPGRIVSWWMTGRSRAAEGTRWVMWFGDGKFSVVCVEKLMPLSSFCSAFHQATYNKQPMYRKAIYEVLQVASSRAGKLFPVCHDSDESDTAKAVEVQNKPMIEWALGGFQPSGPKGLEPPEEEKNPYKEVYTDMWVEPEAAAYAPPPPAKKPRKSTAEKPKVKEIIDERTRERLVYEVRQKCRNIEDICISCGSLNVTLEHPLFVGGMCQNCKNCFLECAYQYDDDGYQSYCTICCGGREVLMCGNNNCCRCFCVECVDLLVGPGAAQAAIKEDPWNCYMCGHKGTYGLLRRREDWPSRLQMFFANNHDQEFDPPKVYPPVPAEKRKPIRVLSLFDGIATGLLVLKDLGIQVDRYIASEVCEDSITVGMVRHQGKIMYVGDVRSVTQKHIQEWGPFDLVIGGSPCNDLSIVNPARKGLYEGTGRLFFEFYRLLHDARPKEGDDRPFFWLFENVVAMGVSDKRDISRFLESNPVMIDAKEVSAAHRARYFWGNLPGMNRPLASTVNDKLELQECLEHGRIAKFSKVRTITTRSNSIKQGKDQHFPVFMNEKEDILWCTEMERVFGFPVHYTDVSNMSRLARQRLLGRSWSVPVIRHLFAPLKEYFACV

[7] = target: Wee1-like protein kinase 2 (Homo sapiens) (UniProt P0C1S8); assay: Selectivity interaction (KinomeScan (DiscoverX)) EUB0000045b WEE2
Wee1-like protein kinase 2 (Homo sapiens), sequence (P0C1S8 whole entry, looked up): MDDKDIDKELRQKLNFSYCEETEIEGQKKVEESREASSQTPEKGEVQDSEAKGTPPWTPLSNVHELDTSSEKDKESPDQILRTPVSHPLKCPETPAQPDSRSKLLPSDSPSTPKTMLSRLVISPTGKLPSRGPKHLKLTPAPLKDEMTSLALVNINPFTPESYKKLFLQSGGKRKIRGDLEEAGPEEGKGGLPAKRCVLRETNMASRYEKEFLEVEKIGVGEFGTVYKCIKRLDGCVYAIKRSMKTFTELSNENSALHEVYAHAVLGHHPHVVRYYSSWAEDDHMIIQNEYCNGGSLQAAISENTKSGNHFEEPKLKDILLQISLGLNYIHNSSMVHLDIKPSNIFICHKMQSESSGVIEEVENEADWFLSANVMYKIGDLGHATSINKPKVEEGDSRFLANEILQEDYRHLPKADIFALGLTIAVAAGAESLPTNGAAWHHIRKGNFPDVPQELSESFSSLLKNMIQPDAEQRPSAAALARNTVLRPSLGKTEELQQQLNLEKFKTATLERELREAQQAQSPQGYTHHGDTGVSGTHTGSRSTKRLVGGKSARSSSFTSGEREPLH

[8] = target: T2, Serine/threonine-protein kinase DCLK3 (Homo sapiens) (UniProt Q9C098); assay: Selectivity interaction (KinomeScan (DiscoverX)) EUB0000045b DCLK3
T2 sequence (whole entry): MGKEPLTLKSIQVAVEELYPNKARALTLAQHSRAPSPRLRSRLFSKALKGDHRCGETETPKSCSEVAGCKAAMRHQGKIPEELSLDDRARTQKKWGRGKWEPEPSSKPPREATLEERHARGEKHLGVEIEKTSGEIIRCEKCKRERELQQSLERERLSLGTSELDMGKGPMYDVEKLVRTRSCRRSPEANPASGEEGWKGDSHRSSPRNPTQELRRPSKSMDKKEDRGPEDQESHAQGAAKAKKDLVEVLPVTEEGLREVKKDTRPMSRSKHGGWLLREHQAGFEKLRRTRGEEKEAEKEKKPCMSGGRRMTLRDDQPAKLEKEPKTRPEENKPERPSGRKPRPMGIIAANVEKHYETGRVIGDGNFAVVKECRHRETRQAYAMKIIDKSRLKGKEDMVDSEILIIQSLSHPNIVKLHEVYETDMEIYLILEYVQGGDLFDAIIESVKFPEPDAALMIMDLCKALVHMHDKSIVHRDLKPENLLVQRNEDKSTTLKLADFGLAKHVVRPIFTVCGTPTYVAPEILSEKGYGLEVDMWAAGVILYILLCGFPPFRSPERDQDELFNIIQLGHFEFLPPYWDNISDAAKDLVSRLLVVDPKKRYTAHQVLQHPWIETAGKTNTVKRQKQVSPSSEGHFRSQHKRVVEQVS

[9] = target: T3, Ephrin type-B receptor 1 (Homo sapiens) (UniProt P54762); assay: Selectivity interaction (KinomeScan (DiscoverX)) EUB0001619a EPHB1; conditions: at 1 µM
T3 sequence (whole entry): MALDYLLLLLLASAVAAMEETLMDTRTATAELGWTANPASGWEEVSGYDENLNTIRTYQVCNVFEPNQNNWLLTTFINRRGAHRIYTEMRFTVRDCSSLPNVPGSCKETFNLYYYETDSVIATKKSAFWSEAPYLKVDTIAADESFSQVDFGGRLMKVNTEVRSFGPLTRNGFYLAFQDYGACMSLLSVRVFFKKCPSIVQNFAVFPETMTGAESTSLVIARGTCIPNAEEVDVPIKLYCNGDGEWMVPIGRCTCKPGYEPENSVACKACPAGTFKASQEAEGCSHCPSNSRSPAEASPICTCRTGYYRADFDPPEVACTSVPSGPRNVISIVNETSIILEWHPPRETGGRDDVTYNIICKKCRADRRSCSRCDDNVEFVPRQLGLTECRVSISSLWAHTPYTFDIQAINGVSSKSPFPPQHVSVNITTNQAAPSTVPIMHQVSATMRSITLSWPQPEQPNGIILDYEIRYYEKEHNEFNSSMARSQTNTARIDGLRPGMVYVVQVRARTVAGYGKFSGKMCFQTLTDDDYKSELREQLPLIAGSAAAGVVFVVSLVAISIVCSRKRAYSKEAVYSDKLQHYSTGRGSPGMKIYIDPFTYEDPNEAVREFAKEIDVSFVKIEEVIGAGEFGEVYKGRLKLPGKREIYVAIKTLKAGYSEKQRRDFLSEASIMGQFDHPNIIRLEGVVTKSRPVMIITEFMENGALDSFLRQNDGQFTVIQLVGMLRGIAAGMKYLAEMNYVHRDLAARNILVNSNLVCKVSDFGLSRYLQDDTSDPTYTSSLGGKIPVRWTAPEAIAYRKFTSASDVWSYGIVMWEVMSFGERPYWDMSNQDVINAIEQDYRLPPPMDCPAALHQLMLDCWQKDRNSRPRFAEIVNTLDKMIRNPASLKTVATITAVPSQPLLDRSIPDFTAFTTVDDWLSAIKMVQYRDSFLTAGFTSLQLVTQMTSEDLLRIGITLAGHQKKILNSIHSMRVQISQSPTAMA

[10] = target: Serine/threonine-protein kinase ATR (Homo sapiens) (UniProt Q13535); assay: Selectivity interaction (ActivX KiNativ screen (ex vivo kinase selectivity in human PBMCs)) EUB0001619a ATR; format: cell-based; conditions: PBMC, at 1 µM
[11] = target: Serine/threonine-protein kinase PAK 4 (Homo sapiens, UniProt O96013); assay: Selectivity interaction (KinomeScan (DiscoverX)) EUB0000695a PAK4; conditions: at 100 nM
Serine/threonine-protein kinase PAK 4, sequence (O96013 whole entry, looked up): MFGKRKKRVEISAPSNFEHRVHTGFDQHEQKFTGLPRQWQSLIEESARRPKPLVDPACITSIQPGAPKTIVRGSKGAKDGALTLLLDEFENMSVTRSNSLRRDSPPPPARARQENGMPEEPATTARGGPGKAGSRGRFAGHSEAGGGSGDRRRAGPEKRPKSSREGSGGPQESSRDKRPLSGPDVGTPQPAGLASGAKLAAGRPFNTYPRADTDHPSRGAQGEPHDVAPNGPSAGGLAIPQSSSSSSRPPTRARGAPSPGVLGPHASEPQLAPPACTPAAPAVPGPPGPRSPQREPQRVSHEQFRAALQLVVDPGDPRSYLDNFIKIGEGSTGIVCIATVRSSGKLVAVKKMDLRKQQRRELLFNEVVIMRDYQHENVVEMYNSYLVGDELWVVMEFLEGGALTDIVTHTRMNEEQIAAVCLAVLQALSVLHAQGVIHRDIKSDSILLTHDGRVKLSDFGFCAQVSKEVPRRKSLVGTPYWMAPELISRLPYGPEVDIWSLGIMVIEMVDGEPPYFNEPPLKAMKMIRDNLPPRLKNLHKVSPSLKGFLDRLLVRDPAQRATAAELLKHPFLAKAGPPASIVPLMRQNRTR

[12] = target: CDK9/Cyclin K (Homo sapiens) (UniProt P50750+O75909); assay: Selectivity interaction (LanthaScreen Eu Kinase Binding Assay) EUB0001632a CDK9; format: protein-complex assay; conditions: at 10 µM

Dual specificity protein kinase CLK3, sequence (P49761 whole entry, looked up): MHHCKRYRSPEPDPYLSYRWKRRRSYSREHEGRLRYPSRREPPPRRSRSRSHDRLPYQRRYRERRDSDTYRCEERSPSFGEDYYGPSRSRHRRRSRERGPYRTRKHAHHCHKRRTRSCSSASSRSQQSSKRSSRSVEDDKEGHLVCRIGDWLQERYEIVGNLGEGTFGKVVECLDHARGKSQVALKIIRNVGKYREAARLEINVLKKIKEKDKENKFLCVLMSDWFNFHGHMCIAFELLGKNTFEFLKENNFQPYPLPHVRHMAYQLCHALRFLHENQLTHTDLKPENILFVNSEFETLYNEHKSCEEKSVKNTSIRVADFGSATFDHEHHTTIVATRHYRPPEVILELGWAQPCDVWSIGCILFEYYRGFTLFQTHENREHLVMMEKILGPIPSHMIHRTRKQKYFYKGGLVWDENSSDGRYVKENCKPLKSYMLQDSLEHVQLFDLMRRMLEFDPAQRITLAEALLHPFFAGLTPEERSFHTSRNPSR
Ribosomal protein S6 kinase alpha-5 (Homo sapiens), sequence (O75582 whole entry, looked up): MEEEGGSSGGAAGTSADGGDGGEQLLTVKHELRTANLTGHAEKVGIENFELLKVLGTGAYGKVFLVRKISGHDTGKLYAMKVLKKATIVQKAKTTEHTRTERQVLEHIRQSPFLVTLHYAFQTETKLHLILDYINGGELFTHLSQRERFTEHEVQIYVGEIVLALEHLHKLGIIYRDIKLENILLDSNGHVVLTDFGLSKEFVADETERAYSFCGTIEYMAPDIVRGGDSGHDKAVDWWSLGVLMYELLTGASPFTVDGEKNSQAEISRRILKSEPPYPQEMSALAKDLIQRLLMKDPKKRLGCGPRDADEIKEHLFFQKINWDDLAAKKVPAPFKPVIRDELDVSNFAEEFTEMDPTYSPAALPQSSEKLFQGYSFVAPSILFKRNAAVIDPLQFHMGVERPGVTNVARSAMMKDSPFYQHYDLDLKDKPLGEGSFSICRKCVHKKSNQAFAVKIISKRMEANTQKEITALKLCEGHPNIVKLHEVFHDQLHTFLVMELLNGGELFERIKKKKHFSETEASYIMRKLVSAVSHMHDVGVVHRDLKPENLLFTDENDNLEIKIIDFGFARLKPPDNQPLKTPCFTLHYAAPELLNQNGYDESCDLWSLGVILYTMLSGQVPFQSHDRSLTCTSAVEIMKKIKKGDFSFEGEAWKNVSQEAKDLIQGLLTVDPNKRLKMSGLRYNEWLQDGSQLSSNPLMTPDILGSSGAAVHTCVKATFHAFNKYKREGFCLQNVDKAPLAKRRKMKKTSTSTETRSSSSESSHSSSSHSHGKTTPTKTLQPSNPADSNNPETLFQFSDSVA

Compound: O=C(NOC[C@H](O)CO)c1ccc(F)c(F)c1Nc1ccc(I)cc1F
- % of control [1]: 100%

Compound: Nc1cnc(N2CCc3cc(S(=O)(=O)Nc4c(F)cc(Cl)cc4F)cc(N4CCCC4=O)c32)nc1 [TP-020n]
- % of control [2]: 100%
- % of control [3]: 88%

Compound: CC[C@@H]1[C@H](F)C(=O)N[C@@H]1COc1nccc2cc(C(N)=O)c(OC)cc12 [ZIMLOVISERTIB]
- % of inhibition [4]: 15.4%
- % of inhibition [5]: -8.2%

Compound: COCCN1CCC(c2cc(CN(C)C(=O)c3cccc(Oc4ccccc4)c3)ccn2)CC1
- % activity ([6]; at 1 µM): > 95%
- % activity ([6]; at 10 µM): > 85%

Compound: C=CC(=O)Nc1cc(-n2c(=O)ccc3cnc4ccc(-c5ccc(NS(C)(=O)=O)cc5)cc4c32)ccc1C
- % of control ([7]; at 1 µM): 66%
- % of control ([7]; at 10 µM): 100%
- % of control ([8]; at 1 µM): 94%
- % of control ([8]; at 10 µM): 78%

Compound: N#Cc1cccc(-c2c[nH]c3ncnc(N4CCOCC4)c23)c1
- % of control [9]: 100%
- % of inhibition [10]: 25%

Compound: Cc1cc(F)c(C(=O)Nc2cccc(-c3nncn3C(C)C)n2)cc1-n1cnc(C2CC2)c1
- % of control [11]: 99%

Compound: Cn1cc(-n2cnc3c(NCc4nc5cc(Cl)c(Cl)cc5[nH]4)nc(N4CCOCC4)nc32)cn1
- % of inhibition [12]: -32.1%
